The record followed here is PubChem BioAssay AID1996.

Molecules are shown by their SMILES. Converted amounts (≈) assume the structure as drawn. Some results are limits rather than exact numbers.

One may read the solubility (kinetic) as solubility judged after dilution from a stock solution rather than from solid.

For this data set the following is noted: buffer; pH 7.4; 200.0 µM.
`CCCNC(=O)c1csc(Nc2cccc3ccccc23)n1` registered a kinetic solubility of 17.8 µg/mL (≈ 57.2 µM).
In the case of `Cc1ccc(Cn2cc(C=O)c3ccccc32)cc1` it was 11.7 µg/mL (≈ 46.9 µM).
For `Cc1cc(C)c(NC(=O)C(C)N2CCCCCC2)c(C)c1.Cl` (configuration not stated) the value was 36.6 µg/mL; for `CC(C)Oc1ccc(C(=O)NCC(=O)O)cc1`, > 35.6 µg/mL.
In the case of `Cc1cc(C)cc(C(=O)N2CCC3(CC2)NCCc2[nH]cnc23)c1` it was > 48.7 µg/mL; in that of `CCCN1CCC(NC(=O)Cc2ccccc2OC)CC1`, 43.5 µg/mL (≈ 150 µM); in that of `CC1=CC(C)(C)[N+](C)(C)c2ccccc21.[I-]`, 41 µg/mL.
The compound `CN(C1CCCCC1)S(=O)(=O)c1ccc(-c2ccccn2)s1` showed a kinetic solubility of 0.5 µg/mL (≈ 1.49 µM).
Compound `O=C(NCCc1ccc(Cl)cc1)C1(c2ccccc2)CC1` came in with a kinetic solubility of 35.4 µg/mL (≈ 118 µM).
For `CCOc1ccccc1NC(=S)NC(=O)CCc1ccccc1` the value was < 0.4 µg/mL; for `Cc1cc(C)n(CC(=O)NCc2ccccc2)c(=O)c1C#N`, 43.5 µg/mL (≈ 147 µM); for `Cc1cccc(NCc2ccc([N+](=O)[O-])s2)c1`, 15.1 µg/mL (≈ 60.8 µM).
For `COc1ccccc1NC(=O)c1ccc(C(=O)c2ccccc2)o1` the value was 8.8 µg/mL (≈ 27.4 µM); for `COc1ccc(NC(=O)CSc2nncn2C)cc1`, > 41.7 µg/mL.
For `O=C(Nc1ccccc1C(=O)NC1CC1)c1ccccc1F` the value was 44.6 µg/mL (≈ 150 µM); for `COc1ccc2c(c1)c(C(=O)CN1CCCCC1)c(C)n2C`, 44.3 µg/mL (≈ 147 µM); for `O=C(Nc1ccccc1)C1CCOC1=O` (configuration not stated), 26.3 µg/mL (≈ 128 µM).
`CCOc1cc(CN2CCc3c([nH]c4ccccc34)C2)ccc1OC` displayed a solubility (kinetic) of 32.8 µg/mL (≈ 97.5 µM).
For `CC(=NCCN(C)C)c1c(O)n(Cc2ccccc2)c(=O)[nH]c1=O` the value was > 49.6 µg/mL.
In the case of `Cc1c(C(=O)N(C)Cc2ccc(OC(F)F)cc2)oc2ccccc12` it was 6.5 µg/mL (≈ 18.8 µM); in that of `O=C(COC(=O)C1CC2C=CC1C2)Nc1ccccc1[N+](=O)[O-]` (configuration not stated), 29.4 µg/mL (≈ 92.9 µM).
In the case of `O=C(CCSCc1ccccc1Cl)NCc1cccs1` it was 32.4 µg/mL (≈ 99.4 µM); in that of `OCCN(CCO)CC(O)COc1ccc(Br)cc1` (configuration not stated), 6.7 µg/mL (≈ 20 µM); in that of `S=C(NCc1ccncc1)Nc1ccc(Br)cc1Cl`, 40.9 µg/mL (≈ 115 µM).
As for `CCCCC(=O)N1CC(=O)Nc2ccc(F)cc2C1c1ccccc1` (configuration not stated), the kinetic solubility was > 51.1 µg/mL.
As to `CN1C(=S)SC(/[N+]([O-])=C/c2c(F)cccc2Cl)C1(C)C` (configuration not stated), the kinetic solubility is > 49.9 µg/mL.
For `COc1ccccc1CNCC(c1ccccc1)c1ccccc1` the value was 33.6 µg/mL (≈ 106 µM); for `CCOC(=O)c1c(O)c(Cl)c(C)[nH]c1=O`, > 34.7 µg/mL.
In the case of `COc1cc(NC(=O)C2CC2)c(OC)cc1NC(=O)c1ccco1` it was 3.6 µg/mL (≈ 10.9 µM); in that of `Cc1ccc(C(=O)Nn2cnc3ccccc3c2=O)cc1C`, > 44 µg/mL.
For `Cc1ccc(NC(=O)c2sc(C)nc2C)c(C)c1` the value was > 39.1 µg/mL.
As to `Fc1ccccc1-c1nc2ccccc2[nH]1`, the kinetic solubility is > 31.8 µg/mL.
The compound `Cc1cc(C)c2c(CC(=O)NC3CCS(=O)(=O)C3)coc2c1` (configuration not stated) gave a solubility (kinetic) of 48.2 µg/mL (≈ 150 µM).
Turning to `O=C(NC(=O)N1CCCCCC1)c1ccccc1`, the kinetic solubility was > 36.9 µg/mL.
For `COc1ccc(NC(=O)C2=CN3CCS(=O)(=O)N=C3C=C2)c(OC)c1` the value was 37.8 µg/mL (≈ 104 µM); for `COc1cc(/C=C/C(=O)OCC(=O)Nc2cc(S(=O)(=O)N3CCCC3)ccc2Cl)cc(OC)c1OC`, 4.3 µg/mL (≈ 7.98 µM); for `CCCN1C(=O)/C(=C/c2ccc3c(c2)OCO3)NC1=S`, 1.9 µg/mL (≈ 6.54 µM).
With `CNc1ccc(C(=O)OCC(=O)NC(=O)NC2CCCCC2)cc1[N+](=O)[O-]`, the solubility (kinetic) was found to be 1.7 µg/mL (≈ 4.49 µM).
In the case of `COc1ccc(CCC(=O)OCC(=O)Nc2sccc2C(N)=O)cc1OC` it was 21 µg/mL (≈ 53.5 µM).
In the case of `Brc1cnc2nc[nH]c2c1` it was > 29.7 µg/mL; in that of `C=CCSc1nc(N)c2c3c(sc2n1)CN(C)CC3`, 43.5 µg/mL (≈ 149 µM); in that of `CCc1ccc(OCCCCCn2ccnc2)cc1`, 19.5 µg/mL (≈ 75.5 µM).
